Assay results reported in PMC3638593, “1,4-dihydroxy-2-naphthoic Acid Induces Apoptosis in Human Keratinocyte: Potential Application for Psoriasis Treatment” (Evidence-based Complementary and Alternative Medicine : eCAM, 2013).
Where “and” joins values, the source holds several entries; their conditions need not be identical. Identical values can stand only once.

Experiments:
Assay type in all cases: cell-based, human
Hs-68 cells = assay: Proliferation/cytotoxicity assay (sulphorhodamine B) on Hs-68 fibroblast; conditions: Hs-68, compared with dithranol
[1] = as above; conditions: human, Hs-68 foreskin fibroblast cells; Hs-68 fibroblast, incubation 72 h; read-out: IC50 on growth (cytotoxic effect)
PIG1 cells = assay: Proliferation/cytotoxicity assay (sulphorhodamine B) on PIG1 melanocyte; conditions: PIG1, compared with dithranol
[2] = as above; conditions: human, PIG1 immortalized epidermal melanocyte cells; PIG1 melanocyte, incubation 72 h; read-out: IC50 on growth (cytotoxic effect)

SMILES | less cytotoxicity on fibroblasts than dithranol (Hs-68 cells) | IC50 at 72 h [1] | less cytotoxicity on melanocytes than dithranol (PIG1 cells) | IC50 at 72 h [2]
O=C(O)c1cc(O)c2ccccc2c1O [DHNA, 1,4-dihydroxy-2-naphthoic acid] | ~ 8 times | 226 µM and 46.2 µg/mL | ~ 10 times | 24 µM and 4.9 µg/mL
O=C1c2c(O)cccc2Cc2cccc(O)c21 [Dithranol, dithranol, reference compound] | – | 27.4 µM and 6.2 µg/mL | – | 2.34 µM and 0.53 µg/mL
